Holding throughout (type): cell-based, human
Assay [1] has as its system A549 cell line. The assay can be described thus: Cancer cell growth inhibition, SRB dye assay (single agents and 50:50 IC50 mixtures). The following applies: Homo sapiens, 144 h, single agent, Example 2, read-out: IC50. Here is the method:
(§1) Cancer cells were seeded the day before application of drug in triplicate or quadruplicate in 96-well plates, allowed to grow in the presence of drug for 6 days before cell growth relative to untreated control wells was determined with a dye assay.
(§2) Cells were seeded in triplicate or quadruplicate at 3-4,000 per microtitre well in 90 μl of RPMI culture medium/10% foetal calf serum/penicillin, streptomycin mix, treated with 10 μl of drug (prepared in a dilution plate at 10× concentration required), and allowed to grow until the controls were nearly confluent (6 days).
(§3) SRB: Plates were washed with PBS, fixed with methylated spirits, washed with tap water and stained with 50 μL/well of SRB solution (sulforhodamine, 0.4% in 1% acetic acid), followed by washing with tap water and 1% acetic acid, solubilisation in Tris and absorbance read at 564 nm in an ELISA reader.
(§4) Data was collected using ELISA plate reader software—SOFTmax PRO3.1.2, then imported into EXCEL. The mean and SD of replicates were calculated as a % of control, after subtraction of the blank value (wells with no cells). A graph was plotted of % control vs dose of agent and IC50 (half maximal inhibitory concentration) values determined.
(§5) Tumour cells were seeded in duplicate in 96-well plates at 2-5,000 per microtitre well containing RPMI culture medium/10% foetal calf serum. The cells were allowed to grow until the controls were nearly confluent after 5-6 days. Plates were then washed with PBS, fixed in ethanol and stained with 50 μL/well of SRB solution (sulforhodamine, 0.4% in 1% acetic acid), followed by washing with 1% acetic acid and solubilisation in Tris. The absorbance was read at 564 nm using an ELISA reader.
(§6) The IC50, or concentration required to inhibit cell growth by 50%, was determined from the percentage inhibition versus concentration data using the probit calculation methods of Finney (Finney D J (1971). Probit Analysis. 3rd Edition. Cambridge University Press).
(§7) The inhibitory data from each mixture was used to determine an IC50 of IC50 value, where the concentrations used were the Multiplying Factor values. In order to determine the actual IC50 contribution of each component in the two-component mixture, the IC50 of IC50 value was multiplied by the IC50 of the individual component. This can then be used to determine the reduction in IC50 contribution (ie, reduction in dose) of the chemotherapeutic agent due to the presence of the steroid saponin in the mixture. A simpler way of determining the reduction in dose is to use the following simple formula: […]
(In general: Sulforhodamine B stains cellular protein and so reports cell mass.)

Assay [2] deals with DU145 cell line. Described as above. To be noted: Homo sapiens, DU-145, 144 h, single agent, Example 2. The protocol:
as §1, §2, §3, §4, §5, §6, §7

For assay [3], the system named is HT29 cell line. The description is as above. To be noted: Homo sapiens, HT-29, 144 h, single agent, Example 2. Here is the method:
as §1, §2, §3, §4, §5, §6, §7

In assay [4] the test system is PC3 cell line. The description is as above. The following applies: Homo sapiens, PC-3, 144 h, single agent, Example 2. The protocol: as §1, §2, §3, §4, §5, §6, §7
Assay [5] has as its system LNCap cell line. The description is as above. To be noted: Homo sapiens, 144 h. Here is the method:
(§8) Cancer cells were seeded the day before application of drug in triplicate or quadruplicate in 96-well plates, allowed to grow in the presence of drug for 6 days before cell growth relative to untreated control wells was determined with a dye assay. Cells were seeded in triplicate or quadruplicate at 3-4,000 per microtitre well in 90 μl of RPMI culture medium/10% foetal calf serum/penicillin, streptomycin mix, treated with 10 μl of drug (prepared in a dilution plate at 10× concentration required), and allowed to grow until the controls were nearly confluent (6 days). SRB: Plates were washed with PBS, fixed with methylated spirits, washed with tap water and stained with 50 μL/well of SRB solution (sulforhodamine, 0.4% in 1% acetic acid), followed by washing with tap water and 1% acetic acid, solubilisation in Tris and absorbance read at 564 nm in an ELISA reader. Data was collected using ELISA plate reader software—SOFTmax PRO3.1.2, then imported into EXCEL. The mean and SD of replicates were calculated as a % of control, after subtraction of the blank value (wells with no cells). A graph was plotted of % control vs dose of agent and IC50 (half maximal inhibitory concentration) values determined. […] The cells were allowed to grow until the controls were nearly confluent after 5-6 days. Plates were then washed with PBS, fixed in ethanol and stained with 50 μL/well of SRB solution (sulforhodamine, 0.4% in 1% acetic acid), followed by washing with 1% acetic acid and solubilisation in Tris. The absorbance was read at 564 nm using an ELISA reader. […] Cambridge University Press). […] The inhibitory data from each mixture was used to determine an IC50 of IC50 value, where the concentrations used were the Multiplying Factor values. In order to determine the actual IC50 contribution of each component in the two-component mixture, the IC50 of IC50 value was multiplied by the IC50 of the individual component. This can then be used to determine the reduction in IC50 contribution (ie, reduction in dose) of the chemotherapeutic agent due to the presence of the steroid saponin in the mixture. A simpler way of determining the reduction in dose is to use the following simple formula: […]

Assay [6] relates to MCF7 cell line. The description is as above. To be noted: Homo sapiens, 144 h. Here is the method:
as §8

Assay [7] has as its system K562 cell line. The assay is described as above. The following applies: Homo sapiens, 144 h, single agent, Example 2, read-out: IC50. Here is the method: as §1, §2, §3, §4, §5, §6, §7
The cell seeding and ELISA plate methodology of Example 2 were used for determining inhibition of the K562 cell line.

In assay [8] the test system is PC3, DU145, A549 and HT29 cell lines. The experiment in a line: Cancer cell growth inhibition, IC50 values used in assay for four cell lines (Example 5). To be noted: Homo sapiens, value used to make up 50:50 IC50 mixtures. Here is the method:
as §5, §6
The cell seeding and ELISA plate methodology of Example 2 were used for determining inhibition of four cancer cell lines. IC50 values were determined for the steroid saponins dioscin, deltonin and prosapogenin A, and their mixtures with cisplatin, docetaxel, doxorubicin and vincristine, using PC3, DU145, A549 and HT29 cell lines.

Where [9] appears, read: Example 3, value used to make up 50:50 IC50 mixtures, read-out: IC50 values used in assay.
The mark [10] stands for this setting: single agent, Example 2, read-out: IC50.

The record followed here is patent publication US9358247B2, “Methods and compositions for promoting activity of anti-cancer therapies” (Oncology Research International Limited, priority 2006, dated 2016).

Molecules are shown by their SMILES. Where two headings read alike, the source gives them in different places.

Usually IC50 stands for the concentration at which inhibition is half-maximal.

With `CC[C@]1(O)C[C@H]2CN(CCc3c([nH]c4ccccc34)[C@@](C(=O)OC)(c3cc4c(cc3OC)N(C=O)[C@H]3[C@@](O)(C(=O)OC)[C@H](OC(C)=O)[C@]5(CC)C=CCN6CC[C@]43[C@@H]65)C2)C1` [Vincristine], the IC50 in assay [1] turned out to be 6 nM; in assay [2], 2.9 nM; in assay [3], 2.4 nM; in assay [4] it was 1.1 nM; in assay [5] (setting [9]) it was 0.5 nM; in assay [5] (setting [10]), 0.49 nM. In addition, the half-maximal inhibitory concentration (IC50) stood at 0.5 nM in assay [6] (setting [9]), 0.49 nM in assay [6] (setting [10]), 0.21 nM in assay [7] and 2.5 nM in assay [8].
